The values below come from patent US20260224532A1, “ESTROGEN RECEPTOR BETA LIGANDS FOR THE PREVENTION AND TREATMENT OF MULTIPLE SCLEROSIS (MS) AND OTHER DEMYELINATING, INFLAMMATORY AND NEURODEGENERATIVE DISEASES” (The Board of Trustees of the University of Illinois, priority 2023, published 2026).

Each structure is given as a SMILES string.

Experiment [1] has as its target T1, purified, full length human ERβ (Homo sapiens, UniProt Q92731).
T1 construct: purified, full length human ERα and ERβ
Kind of experiment: Relative binding affinity (RBA) radiometric competitive binding assay, ERβ. The conditions noted are these: for β/α (ERβ/ERα selectivity): ratio of RBA ERβ to RBA ERα; for RBA ERβ: relative binding affinity, E2 (estradiol) is 100%, tritiated estradiol tracer; for selectivity of binding to ERβ vs ERα: text statement of the β/α ratio; for binding affinity for ERβ (in words): compared with the other 7-substituted indazoles.

Experiment [2] deals with T2, purified, full length human ERα (Homo sapiens, UniProt P03372).
T2 construct: purified, full length human ERα and ERβ
T2 sequence (P03372 1-595): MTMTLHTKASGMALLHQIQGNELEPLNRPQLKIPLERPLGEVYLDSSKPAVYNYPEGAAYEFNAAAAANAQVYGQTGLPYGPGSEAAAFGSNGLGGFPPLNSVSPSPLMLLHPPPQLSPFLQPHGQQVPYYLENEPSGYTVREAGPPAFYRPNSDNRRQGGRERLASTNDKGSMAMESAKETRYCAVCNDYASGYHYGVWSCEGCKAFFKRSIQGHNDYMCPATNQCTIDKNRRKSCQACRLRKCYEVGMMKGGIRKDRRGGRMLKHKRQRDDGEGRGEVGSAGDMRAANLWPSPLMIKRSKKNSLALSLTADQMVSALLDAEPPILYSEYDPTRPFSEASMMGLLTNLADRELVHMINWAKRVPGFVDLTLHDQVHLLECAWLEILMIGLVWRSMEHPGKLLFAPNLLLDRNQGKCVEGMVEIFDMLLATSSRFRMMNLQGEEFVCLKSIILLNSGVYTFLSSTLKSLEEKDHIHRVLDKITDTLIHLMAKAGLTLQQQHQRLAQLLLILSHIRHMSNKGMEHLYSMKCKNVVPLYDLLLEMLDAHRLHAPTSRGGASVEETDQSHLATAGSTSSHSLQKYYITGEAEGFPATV
Briefly: Relative binding affinity (RBA) radiometric competitive binding assay, ERα. The conditions noted are these: for RBA ERα: relative binding affinity, E2 (estradiol) is 100%, tritiated estradiol tracer; for binding affinity for ERα (in words): compared with the other 7-substituted indazoles.

In a further experiment the test system is Primary OPCs. Kind of experiment: Primary OPC culture: MBP+ OL differentiation and total cell count (DAPI). In kind it is cell-based, mouse. The conditions noted are these: for number of MBP+ OLs with increased percentage of branched OLs, compared to vehicle-treated cells / total number of cells (DAPI): 10 nM. The method, then:
Primary OPC Cultures: Primary OPCs, isolated from postnatal day P1 C57BL/6 male and female mouse cortices as described previously, are treated with 10 nM ligands in differentiating medium for […] (Tiwari-Woodruff et al., 2001; Tiwari-Woodruff et al., 2006). Primary OPC are cultured into 8-well chamber slides (three wells per condition, 2.5×10^5 cells/well) for three days to attach and five days in differentiating media (consisting of DMEM-F12 with triiodothyronine- and thyroxine-containing Sato as well as penicillin, streptomycin, insulin, N-acetyl-L-cysteine, forskolin, ciliary neurotrophic factor, neurotrophin-3, and platelet-derived growth factor […] (Tiwari-Woodruff et al., 2001)). A positive control (IndC1), a negative control (Vehicle consisting of the media+EtOH mixture used to dissolve IndCl), and a normal control (differentiating media alone) are used for comparison. At the end of the treatment period, cells are fixed, stained by immunocytochemistry (primary antibody polyclonal chicken myelin basic protein (MBP, Millipore AB9348), and co-stained with nuclear stain-DAPI), and imaged with an Olympus BX61 confocal microscope (Olympus America Inc., Center Valley, PA) at 10× magnification (3 images per well). Cells are counted using the ImageJ multipoint tool, and counts are then divided by the image area (mm^2). Average cell density for each condition is then divided by the normal condition cell density. Analysis of OL differentiation consists of counting the number of MBP+ cells and process extensions that are longer than the respective cell-body diameter and tracking the number of highly branched MBP+ cells (with three or more processes) (Monnerie et al., 2017). Statistics are performed using GraphPad Prism 6 Software (La Jolla, CA). One-way ANOVA with Tukey's posthoc test for multiple comparisons is used to generate p-values, and data are presented as mean±SEM (with α≤0.05).
FIG. 1A-1D show the effects of treatment with the 7-substituted indazole compounds on the expression of myelin basic protein in OLs (MBP^+-OLs, top two panels) as an indication of murine oligodendrocyte precursor cell (OPC) differentiation, as well as the count of the total cells as an indication of cell proliferation/survival (DAPI nucleus stain, bottom two panels). The cells were treated with the listed compounds at 10 nM (FIG. 1A, 1B) and at 1 nM (FIG. 1C, 1D).

T1 sequence (Q92731 whole entry): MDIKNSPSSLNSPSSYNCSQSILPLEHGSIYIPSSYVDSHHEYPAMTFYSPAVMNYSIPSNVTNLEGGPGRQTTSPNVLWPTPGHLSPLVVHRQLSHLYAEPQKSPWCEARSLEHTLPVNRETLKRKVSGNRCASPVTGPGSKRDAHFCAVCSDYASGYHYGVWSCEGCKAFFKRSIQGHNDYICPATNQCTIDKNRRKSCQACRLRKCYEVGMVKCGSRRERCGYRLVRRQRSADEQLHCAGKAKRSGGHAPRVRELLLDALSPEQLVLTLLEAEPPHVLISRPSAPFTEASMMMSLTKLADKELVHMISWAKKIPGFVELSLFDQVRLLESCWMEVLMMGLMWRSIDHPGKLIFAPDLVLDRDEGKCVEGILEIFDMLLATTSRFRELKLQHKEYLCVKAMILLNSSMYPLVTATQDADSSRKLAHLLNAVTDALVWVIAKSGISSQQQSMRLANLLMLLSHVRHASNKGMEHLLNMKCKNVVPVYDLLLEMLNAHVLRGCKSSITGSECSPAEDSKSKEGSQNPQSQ

In the case of `Oc1ccc(-n2cc3cc(O)cc(Br)c3n2)cc1` [Compound 1, 7-bromo-2-(4-hydroxyphenyl)-2H-indazol-5-ol], in experiment [1], the “β/α (ERβ/ERα selectivity)” value came out at 131, the “RBA ERβ” value is reported as 32.01 ± 0.09% and the “selectivity of binding to ERβ vs ERα” value was 131 fold. In addition, the “RBA ERα” value in experiment [2] came to 0.244%. In the experiment with Primary OPCs, the “number of MBP+ OLs with increased percentage of branched OLs, compared to vehicle-treated cells” value is “significant increase”.

On to `Oc1ccc(-n2nc3c(Br)cc(O)cc3c2F)cc1` [Compound 2, 7-bromo-3-fluoro-2-(4-hydroxyphenyl)-2H-indazol-5-ol], for which the “β/α (ERβ/ERα selectivity)” value in experiment [1] is on record as 70.1. Moreover, the “RBA ERα” value in experiment [2] was found to be 2.27%. In addition, the “total number of cells (DAPI)” value in the experiment with Primary OPCs was “reduction”.

With `Oc1ccc(-n2nc3c(Br)cc(O)cc3c2Cl)cc1` [Compound 3, 7-bromo-3-chloro-2-(4-hydroxyphenyl)-2H-indazol-5-ol], the “β/α (ERβ/ERα selectivity)” value in experiment [1] worked out at 18. Moreover, the “RBA ERα” value in experiment [2] stood at 15.57%. Moreover, the “total number of cells (DAPI)” value in the experiment on Primary OPCs was “reduction”.

As for `Oc1ccc(-n2nc3c(Br)cc(O)cc3c2Br)cc1` [Compound 4, 3,7-dibromo-2-(4-hydroxyphenyl)-2H-indazol-5-ol], the “β/α (ERβ/ERα selectivity)” value in experiment [1] was 7. Further, the “RBA ERα” value in experiment [2] is reported as 21.29%.

In the case of `Oc1ccc(-n2cc3cc(O)cc(Cl)c3n2)cc1` [Compound 6, 7-chloro-2-(4-hydroxyphenyl)-2H-indazol-5-ol], in experiment [1], the “β/α (ERβ/ERα selectivity)” value is 200, the “RBA ERβ” value worked out at 19.6 ± 6.1% and the “selectivity of binding to ERβ vs ERα” value is listed as 200 fold. In experiment [2], the “RBA ERα” value is recorded as 0.098%.

Turning to `Oc1ccc(-n2cc3cc(O)cc(F)c3n2)cc1` [Compound 8, 7-fluoro-2-(4-hydroxyphenyl)-2H-indazol-5-ol], in experiment [1], the “β/α (ERβ/ERα selectivity)” value was 87 and the “RBA ERβ” value was determined as 22.4%. For the same molecule, the “RBA ERα” value in experiment [2] was determined as 0.258%.

With `Oc1ccc(-n2nc3c(F)cc(O)cc3c2Cl)cc1` [Compound 9, 3-Chloro-7-fluoro-2-(4-hydroxyphenyl)-2H-indazol-5-ol], in experiment [1], the “β/α (ERβ/ERα selectivity)” value is reported as 37 and the “RBA ERβ” value was 82.3%. Besides, the “RBA ERα” value in experiment [2] worked out at 2.2%.

On to `Cc1cc(O)cc2cn(-c3ccc(O)cc3)nc12` [Compound 10, 7-methyl-2-(4-hydroxyphenyl)-2H-indazol-5-ol], for which, in experiment [1], the “β/α (ERβ/ERα selectivity)” value was 144, the “RBA ERβ” value stood at 2.59% and the “selectivity of binding to ERβ vs ERα” value was found to be 144 fold. Besides, the “RBA ERα” value in experiment [2] is given as 0.018%.

For the molecule `Cc1cc(O)cc2c(Cl)n(-c3ccc(O)cc3)nc12` [Compound 11, 3-Chloro-7-methyl-2-(4-hydroxyphenyl)-2H-indazol-5-ol], in experiment [1], the “β/α (ERβ/ERα selectivity)” value is on record as 17 and the “RBA ERβ” value was determined as 45.9%. Further, the “RBA ERα” value in experiment [2] is listed as 2.76%.

Turning to `Oc1cc(Cl)c2nn(-c3ccc(O)c(F)c3)cc2c1` [Compound 13, 7-Chloro-2-(3-fluoro-4-hydroxyphenyl)-2H-indazol-5-ol], in experiment [1], the “β/α (ERβ/ERα selectivity)” value was 469, the “RBA ERβ” value is on record as 10.76% and the “selectivity of binding to ERβ vs ERα” value was found to be 469 fold. In addition, the “RBA ERα” value in experiment [2] worked out at 0.023%.

Regarding `Oc1ccc(-n2cc3cc(O)cc(Cl)c3n2)c(F)c1` [Compound 15, 7-chloro-2-(2-fluoro-4-hydroxyphenyl)-2H-indazol-5-ol], in experiment [1], the “β/α (ERβ/ERα selectivity)” value is recorded as 185, the “RBA ERβ” value came to 9.63% and the “selectivity of binding to ERβ vs ERα” value is listed as 185 fold. Also, in experiment [2], the “RBA ERα” value is recorded as 0.052%.

With `Oc1ccc(-n2nc3c(Cl)cc(O)cc3c2Cl)c(F)c1` [Compound 16, 3,7-dichloro-2-(2-fluoro-4-hydroxyphenyl)-2H-indazol-5-ol], in experiment [1], the “β/α (ERβ/ERα selectivity)” value is 6.74 and the “RBA ERβ” value was found to be 31.76%. Moreover, in experiment [2], the “RBA ERα” value is 4.71%.

For the molecule `Cc1cc(O)ccc1-n1nc2cc(F)c(O)cc2c1Cl` [Compound 18, 3-Chloro-6-fluoro-2-(4-hydroxy-2-methylphenyl)-2H-indazol-5-ol], in experiment [1], the “β/α (ERβ/ERα selectivity)” value is reported as 4.64 and the “RBA ERβ” value turned out to be 2.53%. Moreover, the “RBA ERα” value in experiment [2] was 0.545%. In addition, in the experiment on Primary OPCs (1 nM), the “MBP expression / number of MBP+ OLs, compared to vehicle-treated cells” value is reported as “significant increase”. Besides, the “number of MBP+ OLs with increased percentage of branched OLs, compared to vehicle-treated cells” value with Primary OPCs is “significant increase”.

Regarding `Oc1ccc(-n2nc3cc(Cl)c(O)cc3c2Cl)cc1` [Compound 19, 3,6-dichloro-2-(4-hydroxyphenyl)-2H-indazol-5-ol], in experiment [1], the “β/α (ERβ/ERα selectivity)” value is recorded as 15.49 and the “RBA ERβ” value came out at 0.852%. In addition, in experiment [2], the “RBA ERα” value is 0.055%.

In the case of `Cc1cc(O)ccc1-n1nc2cc(Cl)c(O)cc2c1Cl` [Compound 20, 3,6-dichloro-2-(4-hydroxy-2-methylphenyl)-2H-indazol-5-ol], in experiment [1], the “β/α (ERβ/ERα selectivity)” value worked out at 2.63 and the “RBA ERβ” value is on record as 0.187%. Also, the “RBA ERα” value in experiment [2] came to 0.071%.

`Oc1ccc(-n2nc3c(O)cc(O)cc3c2Cl)cc1` [Compound 21, 3-chloro-2-(4-hydroxyphenyl)-2H-indazole-5,7-diol]: in experiment [1], the “binding affinity for ERβ (in words)” value is “lower binding affinity”, the “β/α (ERβ/ERα selectivity)” value came out at 51 and the “RBA ERβ” value stood at 0.051%. In experiment [2], the “binding affinity for ERα (in words)” value is listed as “lower binding affinity” and the “RBA ERα” value is 0.001%.

With `Cc1cc(O)ccc1-n1nc2c(O)cc(O)cc2c1Cl` [Compound 22, 3-chloro-2-(4-hydroxy-2-methylphenyl)-2H-indazole-5,7-diol], in experiment [1], the “binding affinity for ERβ (in words)” value is recorded as “lower binding affinity”, the “β/α (ERβ/ERα selectivity)” value came out at 12 and the “RBA ERβ” value is 0.006%. In addition, in experiment [2], the “binding affinity for ERα (in words)” value is on record as “lower binding affinity” and the “RBA ERα” value was 0.0005%.
